From article PMC10488193, “Evaluation of the Chemical Stability, Membrane Permeability and Antiproliferative Activity of Cyclic Diarylheptanoids from European Hornbeam (Carpinus betulus L.)” (International Journal of Molecular Sciences, 2023)
Where “and” joins values, the source holds several entries; their conditions need not be identical. Equal values may be shown once. Entries after “also recorded” stand apart in the source; their conditions may differ. Read-outs that look alike come from different tables or passages of the source. Marks after values point to notes of the source that are not given here.

How the values were obtained:
[1] = Storage stability in solutions and hornbeam bark extracts (UHPLC-DAD); type: physicochemical; conditions: for k / t1/2: storage 23 weeks
Procedure: (§1) For the analysis of the samples from the chemical stability as well as the PAMPA studies, sample concentrations were determined using our previously developed ultrahigh-performance liquid chromatography–diode array detection (UHPLC-DAD) method validated for linearity, precision and accuracy. Briefly, an ACQUITY UPLC H-Class PLUS System hyphenated with a quaternary solvent delivery pump (QSM), an auto-sampler manager (FTN), a column compartment (CM) and a photodiode array (PDA) detector (Waters Corporation) was employed. Stationary phase: Acquity BEH C18 column (100 × 2.1 mm i.d., 1.7 µm; Waters Corporation), column temperature: 30 °C. The mobile phase consisted of 0.3% acetic acid in water (eluent A) and acetonitrile (eluent B). The following gradient elution was applied at a flow rate of 0.3 mL/min: 0 min 12.0% B, 19.0 min 13.5% B, 25.5 min 75.0% B, 26.0 min 100.0% B, 28.0 min 100.0% B, 28.5 min 12.0% B.
(§2) We used the following equations to calculate the first-order reaction rate constant (k) and the half-life (t1/2) indicating the time required to reduce the concentration of diarylheptanoids by 50% [29]:ln (ct/c0) = −k × t(1) t1/2 = −ln 0.5 × k^−1(2) where ct is the concentration of the diarylheptanoids at time t, c0 is the initial concentration, k is the reaction rate constant, t is the treatment time.
The chemical stability of the isolated compounds in solutions was examined at a concentration of 50 µg/mL in methanol and water (in the latter case using methanol as co-solvent, final composition: water-methanol 90:10, v/v). Furthermore, the methanol and ethyl acetate extracts of C. betulus bark (concentration 4 mg/mL) were also studied in order to assess the effects of the accompanying substances. The storage stability studies were performed at a neutral pH value. All solutions were filtered through Phenex-RC 15 mm, 0.2 μm syringe filters (Gen-Lab Ltd., Budapest, Hungary). The samples were prepared in triplicate and stored protected from light at 22 ± 2.0 °C, 5 ± 1.5 °C and −15 ± 2.0 °C for 23 weeks. Quantities of the analytes of interest were quantified at weeks 12 and 23 using the abovementioned UHPLC-DAD method (see Section 3.4).
The effects of the temperature and the medium (i.e., solvent and accompanying substances) were analysed through one-way analysis of variance (ANOVA) followed by Tukey’s post hoc HSD test (p < 0.05). To establish the kinetic parameters t1/2 and k, Equations (1) and (2) were applied, respectively.

[2] = Aqueous stability at biorelevant pH values, 37 °C (UHPLC-DAD); type: physicochemical; conditions: for half-life at 100 µM / degradation rate constant k: first-order; for half-life at 100 µM: read-out: half-life t1/2 (converted)
Procedure: as §1
The buffers modelling the gastric fluid (pH 1.2), the intestinal fluid (pH 6.8) and the blood and the tissues (pH 7.4) were prepared as follows. Buffer pH = 1.2: 1.0 g NaCl and 3.5 mL HCl dissolved in distilled water, final volume: 500.0 mL. Buffer pH = 6.8: 20.2 g Na2HPO4∙7H2O and 3.4 g NaH2PO4∙H2O dissolved in distilled water, final volume: 1000.0 mL, pH adjustment with 0.5 M NaOH or 0.5 M HCl. Buffer pH = 7.4: one PBS tablet dissolved in 200.0 mL distilled water. The stock solutions of compounds 1–4 were prepared with dimethyl sulfoxide (DMSO) at a concentration of 10.0 mM. The stock solutions were diluted 100-fold with each buffer separately to obtain the working solutions (297.0 μL buffer + 3.0 μL stock solution). All working solutions were filtered through Phenex-RC 15 mm, 0.2 μm syringe filters (Gen-Lab Ltd., Budapest, Hungary). The samples were incubated for 81 h at 37 °C; aliquots were taken for analysis every 9 h in accordance with the time required to quantify the analytes of interest in one set of samples. The total incubation time of 81 h was applied to obtain data for ten measurement points. The previously described UHPLC-DAD method was used to examine the changes in compound concentrations (see Section 3.4).
For the determination of pH stability, the initial AUC values were compared with the data after 9 and 81 h using paired-sample t test; significant difference was reported at p < 0.05. The effects of the pH were analysed through one-way analysis of variance (ANOVA) followed by Tukey’s post hoc HSD test (p < 0.05). All experiments were performed in triplicates (n = 3).
as §2

[3] = 12 weeks, 5 °C, EE (ethyl acetate extract of bark)
[4] = 12 weeks, 5 °C, EM (methanol extract of bark)
[5] = 12 weeks, 5 °C, SA (aqueous solution)
[6] = 12 weeks, 5 °C, SM (methanol solution)
[7] = 12 weeks, 22 °C, EE (ethyl acetate extract of bark)
[8] = 12 weeks, 22 °C, EM (methanol extract of bark)
[9] = 12 weeks, 22 °C, SA (aqueous solution)
[10] = 12 weeks, 22 °C, SM (methanol solution)
[11] = 12 weeks, −15 °C, EE (ethyl acetate extract of bark)
[12] = 12 weeks, −15 °C, EM (methanol extract of bark)
[13] = 12 weeks, −15 °C, SA (aqueous solution)
[14] = 12 weeks, −15 °C, SM (methanol solution)
[15] = 23 weeks, 5 °C, EE (ethyl acetate extract of bark)
[16] = 23 weeks, 5 °C, EM (methanol extract of bark)
[17] = 23 weeks, 5 °C, SA (aqueous solution)
[18] = 23 weeks, 5 °C, SM (methanol solution)
[19] = 23 weeks, 22 °C, EE (ethyl acetate extract of bark)
[20] = 23 weeks, 22 °C, EM (methanol extract of bark)
[21] = 23 weeks, 22 °C, SA (aqueous solution)
[22] = 23 weeks, 22 °C, SM (methanol solution)
[23] = 23 weeks, −15 °C, EE (ethyl acetate extract of bark)
[24] = 23 weeks, −15 °C, EM (methanol extract of bark)
[25] = 23 weeks, −15 °C, SA (aqueous solution)
[26] = 23 weeks, −15 °C, SM (methanol solution)

## O=C1CCc2ccc(O)c(c2)-c2cc(ccc2O)C[C@H](O)[C@H](O)[C@H]1O [Compound 2, carpinontriol B]
[1]; [3]
  concentration as compared to the initial value: 99.5 ± 0.4 ^#a %
[1]; [4]
  concentration as compared to the initial value: 99.9 ± 0.8 ^a %
[1]; [5]
  concentration as compared to the initial value: 99.9 ± 0.4 ^a %
[1]; [6]
  concentration as compared to the initial value: 99.4 ± 0.6 ^a %
[1]; [7]
  concentration as compared to the initial value: 100.2 ± 0.7 ^a %
[1]; [8]
  concentration as compared to the initial value: 101.1 ± 1.1 ^a %
[1]; [9]
  concentration as compared to the initial value: 100.4 ± 1.1 ^a %
[1]; [10]
  concentration as compared to the initial value: 99.7 ± 0.4 ^a %
[1]; [11]
  concentration as compared to the initial value: 100.1 ± 0.7 ^a %
[1]; [12]
  concentration as compared to the initial value: 99.8 ± 0.7 ^a %
[1]; [13]
  concentration as compared to the initial value: 99.1 ± 1.3 ^a %
[1]; [14]
  concentration as compared to the initial value: 99.1 ± 1.3 ^a %
[1]; [15]
  concentration as compared to the initial value: 100.1 ± 0.4 ^a %
[1]; [16]
  concentration as compared to the initial value: 99.2 ± 1.2 ^a %
[1]; [17]
  concentration as compared to the initial value: 99.9 ± 0.5 ^a %
[1]; [18]
  concentration as compared to the initial value: 99.2 ± 0.5 ^a %
[1]; [19]
  concentration as compared to the initial value: 99.7 ± 0.5 ^a %
[1]; [20]
  concentration as compared to the initial value: 99.7 ± 0.3 ^#a %
[1]; [21]
  concentration as compared to the initial value: 99.8 ± 0.9 ^a %
[1]; [22]
  concentration as compared to the initial value: 99.9 ± 0.6 ^a %
[1]; [23]
  concentration as compared to the initial value: 99.8 ± 0.4 ^a %
[1]; [24]
  concentration as compared to the initial value: 99.6 ± 0.7 ^a %
[1]; [25]
  concentration as compared to the initial value: 99.1 ± 1.2 ^a %
[1]; [26]
  concentration as compared to the initial value: 99.1 ± 1.2 ^a %
[1]; SM and SA, −15, 5, 22 °C, weeks 12 and 23
  storage stability in methanol and aqueous solutions (in words): stable; also recorded: good stability
[2]; 37 °C, up to 81 h
  aqueous stability at pH 1.2, 6.8, 7.4 (in words): remained intact for the whole study at all pH values; also recorded: stable at all three studied biorelevant pH values
[2]; 9 h, pH 1.2, 37 °C
  relative concentration compared to the initial value: 101.7 ± 4.2 ^a %
[2]; 9 h, pH 6.8, 37 °C
  relative concentration compared to the initial value: 105.2 ± 3.9 ^a %
[2]; 9 h, pH 7.4, 37 °C
  relative concentration compared to the initial value: 102.0 ± 0.9 ^a %
[2]; 81 h, pH 1.2, 37 °C
  relative concentration compared to the initial value: 100.7 ± 5.1 ^a %
[2]; 81 h, pH 6.8, 37 °C
  relative concentration compared to the initial value: 101.9 ± 6.4 ^a %
[2]; 81 h, pH 7.4, 37 °C
  relative concentration compared to the initial value: 101.5 ± 1.1 ^a %

## O=C1CCc2ccc(O)c(c2)-c2cc(ccc2O)C[C@@H](O)[C@H](O)C1 [Compound 3, giffonin X]
[1]; 5 °C, SA (aqueous solution)
  k: 5.0 × 10^−4 Week^−1
  t1/2: 1386.29 Week
[1]; 5 °C, SM (methanol solution)
  k: 7.10 × 10^−3 Week^−1
  t1/2: 97.63 Week
[1]; [3]
  concentration as compared to the initial value: 100.8 ± 0.5 ^#bcd %
[1]; [4]
  concentration as compared to the initial value: 100.2 ± 1.1 ^bcd %
[1]; [5]
  concentration as compared to the initial value: 99.3 ± 0.1 ^#bcd %
[1]; [6]
  concentration as compared to the initial value: 99.0 ± 0.1 ^#bcd %
[1]; [7]
  concentration as compared to the initial value: 101.6 ± 2.2 ^#bc %
[1]; [8]
  concentration as compared to the initial value: 102.7 ± 0.9 ^#bc %
[1]; [9]
  concentration as compared to the initial value: 96.2 ± 0.1 ^#bcd %
[1]; [10]
  concentration as compared to the initial value: 84.5 ± 7.4 ^#a %
[1]; [11]
  concentration as compared to the initial value: 103.5 ± 0.2 ^b %
[1]; [12]
  concentration as compared to the initial value: 101.6 ± 3.1 ^#bc %
[1]; [13]
  concentration as compared to the initial value: 100.1 ± 0.6 ^bcd %
[1]; [14]
  concentration as compared to the initial value: 100.4 ± 1.2 ^bcd %
[1]; 22 °C, SA (aqueous solution)
  k: 5.90 × 10^−3 Week^−1
  t1/2: 117.48 Week
[1]; 22 °C, SM (methanol solution)
  k: 1.85 × 10^−2 Week^−1
  t1/2: 37.47 Week
[1]; [15]
  concentration as compared to the initial value: 100.9 ± 1.3 ^bcd %
[1]; [16]
  concentration as compared to the initial value: 93.8 ± 1.3 ^#de %
[1]; [17]
  concentration as compared to the initial value: 99.1 ± 0.1 ^#bcd %
[1]; [18]
  concentration as compared to the initial value: 81.9 ± 1.0 ^#a %
[1]; [19]
  concentration as compared to the initial value: 95.7 ± 0.5 ^#cd %
[1]; [20]
  concentration as compared to the initial value: 95.6 ± 2.4 ^#cd %
[1]; [21]
  concentration as compared to the initial value: 87.6 ± 0.7 ^#ae %
[1]; [22]
  concentration as compared to the initial value: 67.1 ± 7.5 %
[1]; [23]
  concentration as compared to the initial value: 101.1 ± 2.7 ^#bcd %
[1]; [24]
  concentration as compared to the initial value: 97.6 ± 3.2 ^bcd %
[1]; [25]
  concentration as compared to the initial value: 97.9 ± 2.9 ^bcd %
[1]; [26]
  concentration as compared to the initial value: 95.8 ± 0.1 ^#cd %
[1]; −15 °C, SM (methanol solution)
  k: 1.60 × 10^−3 Week^−1
  t1/2: 433.22 Week
[2]; 9 h, pH 1.2, 37 °C
  relative concentration compared to the initial value: 100.6 ± 6.9 ^a %
[2]; 9 h, pH 6.8, 37 °C
  relative concentration compared to the initial value: 98.9 ± 0.8 ^a %
[2]; 9 h, pH 7.4, 37 °C
  relative concentration compared to the initial value: 82.6 ± 7.7 ^#b %
[2]; 81 h, pH 1.2, 37 °C
  relative concentration compared to the initial value: 83.4 ± 5.3% and 83.4 ± 5.3 ^#b %
[2]; 81 h, pH 6.8, 37 °C
  relative concentration compared to the initial value: 93.2 ± 2.0% and 93.2 ± 2.0 ^#ab %
[2]; 81 h, pH 7.4, 37 °C
  relative concentration compared to the initial value: 46.7 ± 4.7 %
[2]; NaCl/HCl buffer, pH 1.2, 37 °C
  half-life at 100 µM: 12.4 days
[2]; PBS, pH 7.4, 37 °C
  half-life at 100 µM: 3.4 days
[2]; pH 1.2, 37 °C
  degradation rate constant k: 0.00232 h⁻¹
[2]; pH 6.8, 37 °C
  degradation rate constant k: 0.000838 h⁻¹
[2]; pH 7.4, 37 °C
  degradation rate constant k: 0.00849 h⁻¹
[2]; sodium phosphate buffer, pH 6.8, 37 °C
  half-life at 100 µM: 34.5 days
